Results: PubChem BioAssay (NCI)
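Following 48 hours of exposure in 96-well plates, responses at five concentrations were used to interpolate endpoints linearly. The concentration for full growth arrest is given as TGI.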

Assays:
Assay in all cases: inhibition of tumour cell growth, NCI panel, 48 h
[1] = system: NCI-H460 lung
[2] = system: K-562 leukemia
[3] = system: SNB-19 CNS
[4] = system: SW-620 colon
[5] = system: SK-MEL-28 melanoma
[6] = system: A498 renal
[7] = system: HS 578T breast
[8] = system: MOLT-4 leukemia
[9] = system: SK-MEL-2 melanoma
[10] = system: CCRF-CEM leukemia
[11] = system: LOX IMVI melanoma
[12] = system: NCI/ADR-RES ovarian
[13] = system: BT-549 breast
[14] = system: HCC-2998 colon
[15] = system: SK-OV-3 ovarian
[16] = system: HOP-92 NSCLC
[17] = system: U251 CNS
[18] = system: ACHN renal
[19] = system: MDA-N
[20] = system: MALME-3M melanoma
[21] = system: SR leukemia
[22] = system: OVCAR-8 ovarian
[23] = system: RPMI-8226 leukemia
[24] = system: NCI-H226 lung
[25] = system: UACC-62 melanoma
[26] = system: SN12C renal
[27] = system: MDA-MB-231 breast
[28] = system: PC-3 prostate
[29] = system: M14 melanoma
[30] = system: 786-0 renal
[31] = system: MCF7 breast
[32] = system: OVCAR-3 ovarian
[33] = system: CAKI-1 renal
[34] = system: OVCAR-4 ovarian
[35] = system: UO-31 renal
[36] = system: COLO 205 colon
[37] = system: HOP-62 NSCLC
[38] = system: HCT-15 colon
[39] = system: HL-60(TB) leukemia
[40] = system: SF-268 CNS
[41] = system: SNB-75 CNS
[42] = system: NCI-H23 lung
[43] = system: UACC-257 melanoma
[44] = system: KM12 colon
[45] = system: NCI-H522 lung
[46] = system: RXF 393 renal
[47] = system: EKVX NSCLC
[48] = system: A549 NSCLC
[49] = system: T-47D breast
[50] = system: TK-10 renal
[51] = system: MDA-MB-435
[52] = system: HCT-116 colon
[53] = system: DU-145 prostate
[54] = system: SF-295 CNS
[55] = system: IGROV1 ovarian
[56] = system: HT29 colon
[57] = system: SK-MEL-5 melanoma
[58] = system: SF-539 CNS
[59] = system: OVCAR-5 ovarian

CN1CCN(c2c(Cl)cc(Cl)c3[nH]c4ccccc4c(=O)c23)CC1
TGI [1]: 24.1 µM
TGI [2]: > 48.6 µM
TGI [3]: 19.7 µM
TGI [4]: 21.3 µM
TGI [5]: 26.8 µM
TGI [6]: 5.44 µM
TGI [7]: 22.6 µM
TGI [8]: 9.96 µM
TGI [9]: 28.1 µM
TGI [10]: > 36.2 µM
TGI [11]: > 42.6 µM
TGI [12]: 28.9 µM
TGI [13]: 31.2 µM
TGI [14]: 19.4 µM
TGI [15]: 24.3 µM
TGI [16]: 10.9 µM
TGI [17]: 19.7 µM
TGI [18]: 17 µM
TGI [19]: 20.7 µM
TGI [20]: 6.67 µM
TGI [21]: > 100 µM
TGI [22]: 27.9 µM
TGI [23]: 56.8 µM
TGI [24]: 23 µM
TGI [25]: 18.6 µM
TGI [26]: 21.5 µM
TGI [27]: 28.7 µM
TGI [28]: 23.3 µM
TGI [29]: 19.5 µM
TGI [30]: > 43.3 µM
TGI [31]: 15.8 µM
TGI [32]: 33.5 µM
TGI [33]: 20.6 µM
TGI [34]: 46.2 µM
TGI [35]: 17.3 µM
TGI [36]: 25.3 µM
TGI [37]: 19.5 µM
TGI [38]: 17.1 µM
TGI [39]: 4.63 µM
TGI [40]: 20.2 µM
TGI [41]: 22.5 µM
TGI [42]: 27 µM
TGI [43]: 22.1 µM
TGI [44]: 23 µM
TGI [45]: 19.2 µM
TGI [46]: 25.2 µM
TGI [47]: 32.6 µM
TGI [48]: 32.9 µM
TGI [49]: 38.5 µM
TGI [50]: 26.2 µM
TGI [51]: 19.8 µM
TGI [52]: > 42.6 µM
TGI [53]: 16.6 µM
TGI [54]: 20.3 µM
TGI [55]: 20.3 µM
TGI [56]: 16.1 µM
TGI [57]: 31.9 µM
TGI [58]: 15.3 µM
TGI [59]: 29.3 µM
